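GI50: concentration for 50% inhibition of growth. TGI marks complete inhibition of growth.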
What was measured:
Assay in all cases: growth of human tumour cells (NCI), 384-well format
SR leukemia = system: SR leukemia
MDA-MB-435 melanoma = system: MDA-MB-435 melanoma
SW-620 colon = system: SW-620 colon
NCI/ADR-RES ovarian = system: NCI/ADR-RES ovarian
T-47D breast = system: T-47D breast
SNB-75 CNS = system: SNB-75 CNS
K-562 leukemia = system: K-562 leukemia
M14 melanoma = system: M14 melanoma
BT-549 breast = system: BT-549 breast
ACHN renal = system: ACHN renal
UACC-257 melanoma = system: UACC-257 melanoma
CAKI-1 renal = system: CAKI-1 renal
A498 renal = system: A498 renal

## CC1=C(c2cccc(O)c2)[C@H](c2ccc(OCCN3CC(CF)C3)cc2)Oc2ccc(O)cc21
SR leukemia
  GI50: 1.79 µM
  TGI: 3.23 µM
MDA-MB-435 melanoma
  GI50: 10.7 µM
  TGI: 22.6 µM
SW-620 colon
  GI50: 4.9 µM
  TGI: 16.6 µM
NCI/ADR-RES ovarian
  GI50: 16.2 µM
  TGI: 29.8 µM
T-47D breast
  GI50: 1.11 µM
  TGI: 12.4 µM
SNB-75 CNS
  GI50: 2.36 µM
  TGI: 7.79 µM
K-562 leukemia
  GI50: 1.73 µM
  TGI: 3.29 µM
M14 melanoma
  GI50: 1.89 µM
  TGI: 3.88 µM
BT-549 breast
  GI50: 3.24 µM
  TGI: 12.6 µM
ACHN renal
  GI50: 11.1 µM
  TGI: 23.2 µM
UACC-257 melanoma
  GI50: 1.64 µM
  TGI: 3.01 µM
CAKI-1 renal
  GI50: 3.42 µM
  TGI: 13.5 µM
A498 renal
  GI50: 2.28 µM
  TGI: 6.48 µM

## Cc1cc([N+](=O)[O-])c(NS(=O)(=O)c2cccc(C(=O)O)c2)cc1-c1cccnc1
SR leukemia
  GI50: > 61.5 µM
  TGI: > 100 µM
MDA-MB-435 melanoma
  GI50: > 100 µM
  TGI: > 100 µM
SW-620 colon
  GI50: > 100 µM
  TGI: > 100 µM
NCI/ADR-RES ovarian
  GI50: > 100 µM
  TGI: > 100 µM
T-47D breast
  GI50: > 100 µM
  TGI: > 100 µM
SNB-75 CNS
  GI50: > 100 µM
  TGI: > 100 µM
K-562 leukemia
  GI50: > 100 µM
  TGI: > 100 µM
M14 melanoma
  GI50: > 100 µM
  TGI: > 100 µM
BT-549 breast
  GI50: > 100 µM
  TGI: > 100 µM
ACHN renal
  GI50: > 100 µM
  TGI: > 100 µM
UACC-257 melanoma
  GI50: > 100 µM
  TGI: > 100 µM
CAKI-1 renal
  GI50: > 100 µM
  TGI: > 100 µM
A498 renal
  GI50: > 100 µM
  TGI: > 100 µM
